Measurements: publication PMC12160547, “Identification of a Novel Small Molecule STING Agonist Reshaping the Immunomicroenvironment of Pancreatic Ductal Adenocarcinoma” (International Journal of Biological Sciences, 2025)
One block for each compound: values may come before it.

Tests used:
cGAS-STING pathway [1] = test: cGAS-STING pathway, IFN-β and ISG readout in pancreatic cancer organoids; assay type: cell-based, human; settings: TBK1 inhibitor added to culture medium
Method: Tumor tissues or cells were thoroughly lysed in RIPA buffer containing protease and phosphatase inhibitors. The lysates were then centrifuged to collect the supernatant. Proteins were separated by electrophoresis in MOPS buffer and subsequently transferred onto a PVDF membrane. After blocking, the membrane was sequentially incubated with the primary antibody, secondary antibody, and chemiluminescent substrate (ECL) for imaging.
(§1) RNA from tumor tissues or cells was extracted using the SteadyPure Universal RNA Extraction Kit (Accurate Biology) and reverse transcribed into cDNA with the Evo M-MLV Reverse Transcription Kit (Accurate Biology). Relative RNA expression levels were quantified using 2X Universal SYBR Green Fast qPCR Mix (Abclonal), and the results were recorded on the qTOWER®3 84 Real-Time PCR system.
(§2) Multiplex cytokine detection was performed using Luminex cytokine bead array technology provided by WayenBio, Shanghai. In the mouse tumor model, levels of multiple cytokines were simultaneously measured and normalized to tumor weight. For the quantification of specific cytokines, such as IL-6 and IFN-β, enzyme-linked immunosorbent assay (ELISA) kits from Abclonal were used. The assays were conducted according to the manufacturer's instructions.

[2] = system: subcutaneous pancreatic tumor; test: Subcutaneous pancreatic tumor model; assay type: in vivo, C57BL/6 mice; settings: co-administered with D166
Method: C57BL/6 mice were obtained from Phenotek (Shanghai) and randomly assigned to groups, with a minimum of six mice per group. For the subcutaneous tumor model, approximately 5 × 10^5 tumor cells were suspended in 150 μL PBS and injected into the left flank of the mice. Tumor size was measured every four days starting from day 7 post-injection. On days 9, 12, and 15, the mice were administered three different concentrations of the drug via peritumoral injection, while the Control group received only the solvent. The mice were euthanized on day 25, and tumors were excised, weighed, and further analyzed.
as §2

[3] = cited from earlier work
h-STING = biological target: T1, h-STING (Homo sapiens, UniProt Q86WV6, G230A/R293Q/R71H); test: THP1-Dual reporter activation fold; assay type: cell-based
T1 construct: THP1-Dual Fold (10 μM); endogenous in cells; host or cells: THP1-Dual
T1 sequence (Q86WV6 whole entry R71H/G230A/R293Q): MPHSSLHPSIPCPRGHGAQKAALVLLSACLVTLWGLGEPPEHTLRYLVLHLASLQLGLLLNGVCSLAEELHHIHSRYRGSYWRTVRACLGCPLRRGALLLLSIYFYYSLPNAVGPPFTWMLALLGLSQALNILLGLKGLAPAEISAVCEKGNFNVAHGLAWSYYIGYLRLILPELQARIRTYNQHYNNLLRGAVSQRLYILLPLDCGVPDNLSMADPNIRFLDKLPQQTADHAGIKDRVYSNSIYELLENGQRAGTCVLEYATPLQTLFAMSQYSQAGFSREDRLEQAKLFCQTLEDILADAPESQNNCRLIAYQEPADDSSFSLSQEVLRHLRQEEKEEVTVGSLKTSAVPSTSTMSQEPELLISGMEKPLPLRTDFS

m-STING = biological target: T2, m-STING (Mus musculus, UniProt Q3TBT3); test: Raw-lucia reporter activation fold; assay type: cell-based
T2 construct: Raw-lucia Fold (50 μM); endogenous in cells; host or cells: RAW-Lucia
T2 sequence (Q3TBT3 1-378): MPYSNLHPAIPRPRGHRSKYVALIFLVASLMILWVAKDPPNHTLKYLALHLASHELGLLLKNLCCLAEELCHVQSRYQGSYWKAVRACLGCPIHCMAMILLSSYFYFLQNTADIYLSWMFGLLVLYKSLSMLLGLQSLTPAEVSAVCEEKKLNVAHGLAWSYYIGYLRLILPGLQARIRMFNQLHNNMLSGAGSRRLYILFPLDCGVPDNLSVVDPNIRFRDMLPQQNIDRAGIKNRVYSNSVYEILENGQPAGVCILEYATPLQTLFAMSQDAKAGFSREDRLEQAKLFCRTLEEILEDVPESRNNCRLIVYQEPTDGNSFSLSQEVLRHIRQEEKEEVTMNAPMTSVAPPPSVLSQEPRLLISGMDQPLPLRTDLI

STING signaling = test: Relative gene expression in RAW-Lucia cells (RT-qPCR); assay type: cell-based, mouse
Method: as §1

[4] = Pharmacokinetic parameters, i.v. and p.o.; assay type: in vivo
cGAS-STING pathway [5] = system: cGAS-STING pathway; set-up: method as in PMID 31036082; settings: cited from earlier work

Structure (SMILES): O=C(NCCCNc1nc(Nc2cccc(CN3CCOCC3)c2)ncc1C1CC1)C1CCC1 [MRT67037, reference compound]
effect on D166-induced ISG activation in organoids (cGAS-STING pathway [1]): rescued the D166-induced ISG activation | effect on the tumor-killing effect of D166 [2]: counteracted the tumor-killing effect of D166

Structure (SMILES): Nc1nc2c(ncn2[C@@H]2O[C@@H]3CO[P@@](=O)(S)O[C@H]4[C@H](F)[C@H](n5cnc6c(N)ncnc65)O[C@@H]4CO[P@@](=O)(S)O[C@@H]2[C@@H]3F)c(=O)[nH]1 [MK-1454]
efficacy in clinical study ([3]; single-agent treatment group): limited efficacy as a monotherapy

Structure (SMILES): Nc1ncnc2c1ncn2[C@@H]1O[C@@H]2COP(=O)([S-])O[C@@H]3[C@H](O)[C@@H](COP([O-])(=S)O[C@H]2[C@H]1O)O[C@H]3n1cnc2c(N)ncnc21.[Na+].[Na+] (stereo partly drawn) [ADU-S100]
reason for termination in phase I clinical trials [3]: poor drug stability and systemic toxicity

THP1-Dual Fold (10 μM) (h-STING): 43.09 Fold | Raw-lucia Fold (50 μM) (m-STING): 22.59 Fold | AUCInf ([4]; i.v., average of three runs): 1372 ng·h/mL | CL ([4]; i.v., average of three runs): 12.3 mL/min/kg | MRTInf ([4]; i.v., average of three runs): 15.6 min | T1/2 ([4]; i.v., average of three runs): 39.6 min | Vz ([4]; i.v., average of three runs): 0.70 L/kg | AUCInf ([4]; p.o., average of three runs): 2852 ng·h/mL | MRTInf ([4]; p.o., average of three runs): 53.4 min | T1/2 ([4]; p.o., average of three runs): 65.4 min | F ([4]; p.o., oral bioavailability): 69.3%
Structure (SMILES): COc1cc2cc(C(=O)CCC(=O)O)sc2cc1OC [MSA-2, reference compound]
Relative expression (Cxcl10/actin) (STING signaling): 179.40 ± 2.58 | Relative expression (Ifnb/actin) (STING signaling): 125.70 ± 3.06

Structure (SMILES): Cc1ccc2c(=O)c3cccc(CC(=O)O)c3oc2c1C [DMXAA, 5,6-Dimethylxanthenone-4-acetic acid]
species in which the cGAS-STING pathway is activated (cGAS-STING pathway [5]): only in mice
